Laboratory results as given in ChEMBL document CHEMBL1130155, “Synthesis and structure-activity relationships of potent thrombin inhibitors: piperazides of 3-amidinophenylalanine” (J Med Chem, 1997).

Tests used:
[1] = molecular target: Prothrombin (Bos taurus, UniProt P00735)
Description: Inhibitory activity against thrombin

[2] = molecular target: T1, Serine protease 1 (Bos taurus, UniProt P00760); assay: Inhibitory activity against trypsin
T1 sequence (P00760 whole entry): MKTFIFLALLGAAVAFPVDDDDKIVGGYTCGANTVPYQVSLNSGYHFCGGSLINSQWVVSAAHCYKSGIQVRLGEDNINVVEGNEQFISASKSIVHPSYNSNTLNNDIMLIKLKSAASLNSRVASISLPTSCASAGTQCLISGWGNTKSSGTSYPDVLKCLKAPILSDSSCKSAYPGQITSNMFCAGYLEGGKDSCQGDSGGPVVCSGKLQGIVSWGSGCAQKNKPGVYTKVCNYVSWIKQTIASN

[3] = molecular target: Coagulation factor X (Bos taurus, UniProt P00743); assay: Inhibitory activity against coagulation factor X.
Coagulation factor X, sequence (P00743 41-180 limits assumed): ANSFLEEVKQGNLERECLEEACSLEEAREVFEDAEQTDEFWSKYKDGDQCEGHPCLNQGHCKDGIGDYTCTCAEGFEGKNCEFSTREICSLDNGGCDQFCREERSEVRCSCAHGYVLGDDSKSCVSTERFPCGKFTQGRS
Coagulation factor X, sequence (P00743 234-492 limits assumed): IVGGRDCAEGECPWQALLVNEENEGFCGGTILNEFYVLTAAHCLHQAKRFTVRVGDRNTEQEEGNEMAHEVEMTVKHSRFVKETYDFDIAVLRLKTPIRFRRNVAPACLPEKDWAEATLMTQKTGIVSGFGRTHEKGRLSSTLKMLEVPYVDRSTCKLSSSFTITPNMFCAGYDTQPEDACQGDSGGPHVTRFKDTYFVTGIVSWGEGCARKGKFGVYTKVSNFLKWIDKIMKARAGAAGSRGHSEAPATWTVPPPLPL

[4] = molecular target: T2, Plasminogen (Homo sapiens, UniProt P00747); assay: Inhibitory activity against plasmin
T2 sequence (P00747 97-580 limits assumed): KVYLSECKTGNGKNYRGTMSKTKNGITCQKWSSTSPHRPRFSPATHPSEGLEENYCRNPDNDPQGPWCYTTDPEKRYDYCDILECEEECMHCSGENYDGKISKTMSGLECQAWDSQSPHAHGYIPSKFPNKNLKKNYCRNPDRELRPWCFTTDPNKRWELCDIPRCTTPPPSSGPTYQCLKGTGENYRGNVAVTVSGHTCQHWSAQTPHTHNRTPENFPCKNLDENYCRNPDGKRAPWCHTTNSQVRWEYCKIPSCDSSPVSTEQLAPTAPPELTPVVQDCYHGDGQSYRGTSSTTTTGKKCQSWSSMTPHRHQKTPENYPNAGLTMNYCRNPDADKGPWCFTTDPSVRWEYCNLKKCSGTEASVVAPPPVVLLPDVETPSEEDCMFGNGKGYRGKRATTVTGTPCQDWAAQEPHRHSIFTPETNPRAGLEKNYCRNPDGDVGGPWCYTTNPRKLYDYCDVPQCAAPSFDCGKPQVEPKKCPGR
T2 sequence (P00747 581-810 limits assumed): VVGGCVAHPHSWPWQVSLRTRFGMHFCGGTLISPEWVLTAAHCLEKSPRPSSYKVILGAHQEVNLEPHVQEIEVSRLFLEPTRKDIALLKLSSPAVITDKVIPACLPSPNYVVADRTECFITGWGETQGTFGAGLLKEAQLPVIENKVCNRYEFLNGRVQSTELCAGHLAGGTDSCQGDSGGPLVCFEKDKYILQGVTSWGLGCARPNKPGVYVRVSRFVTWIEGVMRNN

[5] = Concentration for doubling of thrombin time; format: functional, Homo sapiens
[6] = Concentration for doubling of prothrombin time; format: functional, Homo sapiens
[7] = molecular target: Vitamin K-dependent protein C (Homo sapiens, UniProt P04070); assay: Inhibitory activity against Activated protein C
Vitamin K-dependent protein C, sequence (P04070 43-197 limits assumed): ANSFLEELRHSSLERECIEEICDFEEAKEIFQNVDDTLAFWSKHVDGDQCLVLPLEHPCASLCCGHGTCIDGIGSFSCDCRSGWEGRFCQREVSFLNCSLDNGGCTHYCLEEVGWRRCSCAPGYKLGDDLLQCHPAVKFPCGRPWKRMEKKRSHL
Vitamin K-dependent protein C, sequence (P04070 212-461 limits assumed): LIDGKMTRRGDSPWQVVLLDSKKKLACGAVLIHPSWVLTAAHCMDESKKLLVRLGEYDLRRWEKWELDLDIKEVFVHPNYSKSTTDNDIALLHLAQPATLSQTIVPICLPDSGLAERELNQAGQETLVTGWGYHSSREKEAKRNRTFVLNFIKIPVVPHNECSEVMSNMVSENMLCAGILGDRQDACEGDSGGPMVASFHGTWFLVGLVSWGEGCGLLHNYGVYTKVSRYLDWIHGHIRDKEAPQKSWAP

[8] = molecular target: Urokinase-type plasminogen activator (Homo sapiens, UniProt P00749); assay: Inhibitory activity against UK.
[9] = molecular target: Tissue-type plasminogen activator (Homo sapiens, UniProt P00750); assay: Inhibitory activity against single-chain tissue-type plasminogen activator (sc-tissue plasminogen activator)
Tissue-type plasminogen activator, sequence (P00750 whole entry): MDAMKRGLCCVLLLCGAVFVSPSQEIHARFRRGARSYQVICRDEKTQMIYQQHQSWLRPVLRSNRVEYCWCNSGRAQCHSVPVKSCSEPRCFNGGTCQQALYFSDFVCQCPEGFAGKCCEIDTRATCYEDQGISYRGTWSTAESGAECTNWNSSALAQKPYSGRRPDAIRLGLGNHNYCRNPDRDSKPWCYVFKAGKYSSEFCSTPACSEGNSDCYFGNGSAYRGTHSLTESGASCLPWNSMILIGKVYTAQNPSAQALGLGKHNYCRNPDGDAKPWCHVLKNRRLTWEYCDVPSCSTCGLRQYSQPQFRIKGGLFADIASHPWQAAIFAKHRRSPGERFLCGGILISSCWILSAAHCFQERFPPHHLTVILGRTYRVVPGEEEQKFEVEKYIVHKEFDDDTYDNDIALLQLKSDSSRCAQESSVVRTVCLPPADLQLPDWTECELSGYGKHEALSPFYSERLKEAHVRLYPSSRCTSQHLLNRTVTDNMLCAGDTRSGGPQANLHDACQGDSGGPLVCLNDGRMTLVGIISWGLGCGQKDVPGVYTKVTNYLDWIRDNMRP

[10] = molecular target: T3, Coagulation factor XII (Homo sapiens, UniProt P00748); assay: Inhibitory activity against Coagulation factor XII
T3 sequence (P00748 whole entry): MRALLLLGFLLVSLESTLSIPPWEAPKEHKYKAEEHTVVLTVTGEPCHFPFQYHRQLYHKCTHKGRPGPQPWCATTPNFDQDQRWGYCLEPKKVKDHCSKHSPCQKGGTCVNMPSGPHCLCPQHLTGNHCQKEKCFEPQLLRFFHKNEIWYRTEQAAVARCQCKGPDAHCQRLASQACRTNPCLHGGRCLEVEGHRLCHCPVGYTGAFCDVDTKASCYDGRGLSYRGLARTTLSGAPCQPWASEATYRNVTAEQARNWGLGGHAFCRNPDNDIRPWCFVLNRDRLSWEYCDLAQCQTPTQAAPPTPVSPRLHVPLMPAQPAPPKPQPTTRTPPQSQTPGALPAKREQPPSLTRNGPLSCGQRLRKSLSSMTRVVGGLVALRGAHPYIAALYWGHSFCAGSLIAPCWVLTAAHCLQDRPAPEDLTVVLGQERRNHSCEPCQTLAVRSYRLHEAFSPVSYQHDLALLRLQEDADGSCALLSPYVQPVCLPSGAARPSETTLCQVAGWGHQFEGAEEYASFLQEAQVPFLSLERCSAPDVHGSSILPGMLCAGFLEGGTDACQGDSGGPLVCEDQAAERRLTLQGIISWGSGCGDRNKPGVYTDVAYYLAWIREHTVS

[11] = molecular target: T2, Plasminogen; assay: Inhibitory activity against Plasmin.
[12] = molecular target: Plasma kallikrein (Homo sapiens, UniProt P03952); assay: Inhibitory activity against Kallikrein (PK)
Plasma kallikrein, sequence (P03952 20-390 limits assumed): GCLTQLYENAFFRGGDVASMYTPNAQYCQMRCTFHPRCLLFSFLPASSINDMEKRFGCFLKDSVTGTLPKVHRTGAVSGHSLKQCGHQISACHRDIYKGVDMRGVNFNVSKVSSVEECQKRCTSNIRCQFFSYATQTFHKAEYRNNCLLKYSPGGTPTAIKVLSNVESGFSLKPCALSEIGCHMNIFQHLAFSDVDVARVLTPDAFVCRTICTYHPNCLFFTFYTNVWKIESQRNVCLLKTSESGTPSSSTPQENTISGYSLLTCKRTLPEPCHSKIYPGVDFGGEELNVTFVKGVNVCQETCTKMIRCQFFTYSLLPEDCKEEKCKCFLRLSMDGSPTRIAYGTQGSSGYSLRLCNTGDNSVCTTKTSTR
Plasma kallikrein, sequence (P03952 391-638 limits assumed): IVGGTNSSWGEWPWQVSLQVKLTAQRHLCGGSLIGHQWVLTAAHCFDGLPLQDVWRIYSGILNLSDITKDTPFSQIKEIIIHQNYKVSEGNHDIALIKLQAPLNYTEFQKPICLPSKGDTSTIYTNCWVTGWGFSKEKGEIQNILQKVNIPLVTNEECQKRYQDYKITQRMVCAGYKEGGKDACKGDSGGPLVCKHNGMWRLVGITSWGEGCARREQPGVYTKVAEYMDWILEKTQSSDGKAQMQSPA

[13] = Concentration for doubling of partial thromboplastin time; format: functional, Homo sapiens

Row | Structure (SMILES) | Ki [1] | Ki [2] | Ki [3] | Ki [4] | other results
1 | N=C(N)c1cccc(C[C@H](NS(=O)(=O)c2ccc3ccccc3c2)C(=O)N2CCN(CCO)CC2)c1 | 5.6 µM | 39 µM | – | – | –
2 | CS(=O)(=O)N1CCN(C(=O)C(Cc2cccc(C(=N)N)c2)NS(=O)(=O)c2ccc3ccccc3c2)CC1 (configuration not stated) | – | 0.19 µM | – | – | –
3 | N=C(N)c1cccc(CC(NS(=O)(=O)c2ccc3ccccc3c2)C(=O)N2CCCCC2)c1 (configuration not stated) | – | – | 38 µM | 7 µM | –
4 | N=C(N)c1cccc(CC(NS(=O)(=O)c2ccc3ccccc3c2)C(=O)N2CCN(C(=O)c3ccccc3)CC2)c1 (configuration not stated) | 7.6 µM | 0.14 µM | 16 µM | 7.2 µM | –
5 | CC(=O)N1CCN(C(=O)[C@H](Cc2cccc(C(=N)N)c2)NS(=O)(=O)c2ccc3ccccc3c2)CC1 | – | 17 µM | – | – | –
6 | N=C(N)c1cccc(CC(NS(=O)(=O)c2ccc3ccccc3c2)C(=O)N2CCN(CCO)CC2)c1 (configuration not stated) | – | 1.1 µM | – | – | –
7 | CS(=O)(=O)N1CCN(C(=O)C(Cc2cccc(C(=N)N)c2)NS(=O)(=O)c2ccccc2)CC1 (configuration not stated) | 0.22 µM | 1 µM | 29 µM | 29 µM | –
8 | N=C(N)c1cccc(CC(NS(=O)(=O)c2ccc3ccccc3c2)C(=O)N2CCN(c3ccccc3)CC2)c1 (configuration not stated) | – | – | 27 µM | 2.6 µM | –
9 | COc1cc(C)c(S(=O)(=O)NC(Cc2cccc(C(=N)N)c2)C(=O)N2CCN(S(C)(=O)=O)CC2)c(C)c1C (configuration not stated) | – | 1.8 µM | – | – | –
10 | N=C(N)c1cccc(CC(NS(=O)(=O)c2ccc3ccccc3c2)C(=O)N2CCN(C(=O)c3ccc4ccccc4c3)CC2)c1 (configuration not stated) | 0.46 µM | 0.19 µM | 7.3 µM | 3 µM | –
11 | N=C(N)c1cccc(C[C@H](NS(=O)(=O)c2ccc3ccccc3c2)C(=O)N2CCN(C=O)CC2)c1 | 1.6 µM | 11.1 µM | – | – | –
12 | Cc1ccc(S(=O)(=O)N2CCN(C(=O)C(Cc3cccc(C(=N)N)c3)NS(=O)(=O)c3ccc4ccccc4c3)CC2)cc1 (configuration not stated) | – | 0.22 µM | – | – | –
13 | CCCS(=O)(=O)N1CCN(C(=O)C(Cc2cccc(C(=N)N)c2)NS(=O)(=O)c2ccc3ccccc3c2)CC1 (configuration not stated) | 0.28 µM | 0.21 µM | 22 µM | 7.8 µM | –
14 | CC(=O)N1CCN(C(=O)C(Cc2cccc(C(=N)N)c2)NS(=O)(=O)c2ccc3ccccc3c2)CC1 (configuration not stated) | – | 0.14 µM | – | – | –
15 | N=C(N)c1cccc(C[C@@H](NS(=O)(=O)c2ccc3ccccc3c2)C(=O)N2CCN(CCO)CC2)c1 | 0.037 µM | 0.6 µM | 22 µM | – | IC50 [5]: 0.14 µM; IC50 [6]: 1.1 µM; Ki [7]: 39 µM; Ki [8]: 140 µM; Ki [9]: 180 µM; Ki [10]: 400 µM; Ki [11]: 21 µM; Ki [12]: 27 µM; IC50 [13]: 0.56 µM
16 | CS(=O)(=O)N1CCN(C(=O)[C@@H](Cc2cccc(C(=N)N)c2)NS(=O)(=O)c2ccc3ccccc3c2)CC1 | – | 0.067 µM | 19 µM | – | IC50 [5]: 0.037 µM; IC50 [6]: 0.39 µM; Ki [7]: 15.2 µM; Ki [8]: 28 µM; Ki [9]: 190 µM; Ki [10]: 52 µM; Ki [11]: 9 µM; Ki [12]: 58 µM; IC50 [13]: 0.26 µM
17 | CN1CCN(C(=O)C(Cc2cccc(C(=N)N)c2)NS(=O)(=O)c2ccc3ccccc3c2)CC1 (configuration not stated) | 0.036 µM | – | 30 µM | 55 µM | –
18 | CCN(CC)C(=O)N1CCN(C(=O)C(Cc2cccc(C(=N)N)c2)NS(=O)(=O)c2ccc3ccccc3c2)CC1 (configuration not stated) | 0.51 µM | 0.22 µM | 12 µM | 14 µM | –
19 | CN(C)C(=O)N1CCN(C(=O)[C@@H](Cc2cccc(C(=N)N)c2)NS(=O)(=O)c2ccc3ccccc3c2)CC1 | 0.004 µM | 0.097 µM | 16 µM | – | IC50 [5]: 0.042 µM; IC50 [6]: 0.72 µM; Ki [7]: 13.5 µM; Ki [8]: 28 µM; Ki [9]: > 1000 µM; Ki [10]: 61 µM; Ki [11]: 4.9 µM; Ki [12]: 7.3 µM; IC50 [13]: 0.39 µM
20 | Cc1c(C)c(S(=O)(=O)N[C@H](Cc2cccc(C(=N)N)c2)C(=O)N2CCN(S(C)(=O)=O)CC2)c(C)c2c1OC(C)(C)CC2 | 0.0053 µM | 0.32 µM | 41 µM | – | Ki [7]: 180 µM; Ki [8]: 58 µM; Ki [9]: 470 µM; Ki [10]: > 1000 µM; Ki [12]: 97 µM
21 | CN(C)C(=O)N1CCN(C(=O)C(Cc2cccc(C(=N)N)c2)NS(=O)(=O)c2ccc3ccccc3c2)CC1 (configuration not stated) | – | 0.17 µM | – | – | –
22 | Cc1c(C)c(S(=O)(=O)NC(Cc2cccc(C(=N)N)c2)C(=O)N2CCN(S(C)(=O)=O)CC2)c(C)c2c1OC(C)(C)CC2 (configuration not stated) | – | 0.76 µM | – | – | –
